From ChEMBL document CHEMBL1122667, “Acetylation of some novel hemicholinium compounds by soluble choline acetyltransferase: structure-activity relationships” (J Med Chem, 1984)

Assays:
[1] = target: T1, Choline O-acetyltransferase (Rattus norvegicus) (UniProt P32738); experiment: Rate of acetylation of 13.0+/-1.1 umol compound by 1 g of choline acetyltransferase (ChAc) by incubating for 10 minutes at 37 degrees Centigrade; parameters: reference not given here
T1 sequence (whole entry): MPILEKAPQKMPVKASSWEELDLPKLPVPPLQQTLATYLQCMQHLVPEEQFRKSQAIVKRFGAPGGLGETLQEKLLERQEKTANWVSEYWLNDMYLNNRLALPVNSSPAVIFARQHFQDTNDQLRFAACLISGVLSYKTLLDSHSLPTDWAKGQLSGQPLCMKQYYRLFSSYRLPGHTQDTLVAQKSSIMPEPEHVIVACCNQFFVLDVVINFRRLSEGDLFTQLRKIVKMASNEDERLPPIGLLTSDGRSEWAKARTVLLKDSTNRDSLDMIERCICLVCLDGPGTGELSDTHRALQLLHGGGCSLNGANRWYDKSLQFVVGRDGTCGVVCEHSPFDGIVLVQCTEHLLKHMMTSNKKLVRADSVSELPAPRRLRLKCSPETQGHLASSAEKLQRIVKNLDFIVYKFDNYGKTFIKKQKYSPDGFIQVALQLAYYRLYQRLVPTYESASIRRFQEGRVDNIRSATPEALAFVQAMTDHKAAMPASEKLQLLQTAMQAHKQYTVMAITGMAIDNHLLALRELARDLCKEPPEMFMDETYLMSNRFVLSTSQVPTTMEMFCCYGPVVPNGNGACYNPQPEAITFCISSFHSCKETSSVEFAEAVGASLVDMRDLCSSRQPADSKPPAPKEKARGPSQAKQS

[2] = substrate: C[N+]1(C)CCOC(O)(c2ccc(CCCc3ccc(C4(O)C[N+](C)(C)CCO4)cc3)cc2)C1; experiment: (§1) Apparent Michaelis-Menten Constant (KM) for the acetylation of compound was calculated from Linewear-Burke plots by incubating for 10 minutes at 37 degrees Centigrade
[3] = substrate: C[N+]1(C)CCOC(O)(c2ccc(-c3ccc(C4(O)C[N+](C)(C)CCO4)cc3)cc2)C1; experiment: as §1
[4] = substrate: C[N+](C)(C)CCO; experiment: as §1

## C[N+]1(C)CCOC(O)(c2ccc(Cc3ccc(C4(O)C[N+](C)(C)CCO4)cc3)cc2)C1 (centres undefined)
[1]
  Acetylation: 4%

## C[N+]1(C)CCOC(O)(c2ccc(CCc3ccc(C4(O)C[N+](C)(C)CCO4)cc3)cc2)C1 (centres undefined)
[1]
  Acetylation: 3%

## C[N+]1(C)CCOC(O)(c2ccc(-c3ccc(C4(O)C[N+](C)(C)CCO4)cc3)cc2)C1 (centres undefined)
[1]
  Acetylation: 28%

## C[N+]1(C)CCOC(O)(c2ccc(CCCCc3ccc(C4(O)C[N+](C)(C)CCO4)cc3)cc2)C1 (centres undefined)
[1]
  Acetylation: 5%

## C[N+]1(C)CCOC(O)(c2ccc(CCCc3ccc(C4(O)C[N+](C)(C)CCO4)cc3)cc2)C1 (centres undefined)
[1]
  Acetylation: 28%

## C[N+](C)(C)CCO
[1]
  Acetylation: 100%

B1: Choline O-acetyltransferase (Rattus norvegicus), P32738 (protein)
chain: T1 sequence (whole entry)
[2]
  Km: 1270 µM
[3]
  Km: 1210 µM
[4]
  Km: 290 µM
